From patent US12679843B2, “Pyrrolopyrimidine amines as complement inhibitors” (BioCryst Pharmaceuticals, Inc., priority 2020, dated 2026)

Each compound was assayed against Factor D (Homo sapiens, UniProt P00746) (assay: Factor D esterolytic assay (Z-Lys-SBzl thioester substrate, DTNB, 405 nm)). Settings: substrate Z-Lys-SBzl 1.29 mM, 100 mM HEPES, 500 mM NaCl, pH 7.5, 10% DMSO, tested a minimum of three times.
Type: biochemical
Outline: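 Human Factor D hydrolysis of Z-Lys-SBzl (1.29 mM) monitored at 405 nm via DTNB thiol detection for 600 s, 690 nm background subtracted. Buffer 100 mM HEPES, 500 mM NaCl, pH 7.5, 10% DMSO; substrate added immediately or after room-temperature preincubation. IC50 from percent inhibition of rate, at least three tests.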

Sequence of Factor D (P00746 26-253): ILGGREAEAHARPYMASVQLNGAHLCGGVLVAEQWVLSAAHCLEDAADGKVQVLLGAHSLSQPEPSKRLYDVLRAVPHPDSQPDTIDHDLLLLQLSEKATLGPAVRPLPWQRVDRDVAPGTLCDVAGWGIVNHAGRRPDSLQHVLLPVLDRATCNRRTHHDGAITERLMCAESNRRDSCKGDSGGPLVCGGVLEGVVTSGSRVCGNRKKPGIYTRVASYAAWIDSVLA

**Q.** Which IC50 does the source give for `COC(=O)c1cccc2c1c1c(N)ncnc1n2CC(=O)N1[C@H](C(=O)Nc2cccc(Br)n2)C[C@@]2(C)C[C@@H]12` [Compound 221c, methyl 4-amino-9-(2-((1R,3S,5R)-3-((6-bromopyridin-2-yl)carbamoyl)-5-methyl-2-azabicyclo[3.1.0]hexan-2-yl)-2-oxoethyl)-9H-pyrimido[4,5-b]indole-5-carboxylate] here?
**A.** < 0.1 µM

**Q.** For `C[C@@]12C[C@@H](C(=O)Nc3cccc(Br)n3)N(C(=O)Cn3c4cccc(C(=O)O)c4c4c(N)ncnc43)[C@@H]1C2` [Compound 222a, 4-amino-9-(2-((1R,3S,5R)-3-((6-bromopyridin-2-yl)carbamoyl)-5-methyl-2-azabicyclo[3.1.0]hexan-2-yl)-2-oxoethyl)-9H-pyrimido[4,5-b]indole-5-carboxylic acid], which IC50 is on record?
**A.** > 1 µM

**Q.** `COC(=O)c1cccc2c3c(N)ncnc3n(CC(=O)N3[C@H](C(=O)Nc4cccc(Br)n4)C[C@@]4(C)C[C@@H]34)c12` [Compound 223a, methyl 4-amino-9-(2-((1R,3S,5R)-3-((6-bromopyridin-2-yl)carbamoyl)-5-methyl-2-azabicyclo[3.1.0]hexan-2-yl)-2-oxoethyl)-9H-pyrimido[4,5-b]indole-8-carboxylate] was tested. Which IC50 did it give?
**A.** < 0.1 µM

**Q.** `Nc1ncnc2c1c1c(C(=O)O)cccc1n2CC(=O)N1[C@@H]2C[C@@H]2C[C@H]1C(=O)Nc1cccc(Br)n1` [Compound 224b, 4-amino-9-(2-((1R,3S,5R)-3-((6-bromopyridin-2-yl)carbamoyl)-2-azabicyclo[3.1.0]hexan-2-yl)-2-oxoethyl)-9H-pyrimido[4,5-b]indole-5-carboxylic acid] was tested. Which IC50 did it give?
**A.** > 1 µM

**Q.** How did the IC50 turn out when `COC(=O)Nc1ccc2c(c1)c1c(N)ncnc1n2CC(=O)N1[C@@H]2C[C@@H]2C[C@H]1C(=O)Nc1cccc(Br)n1` [Compound 225e, methyl (4-amino-9-(2-((1R,3S,5R)-3-((6-bromopyridin-2-yl)carbamoyl)-2-azabicyclo[3.1.0]hexan-2-yl)-2-oxoethyl)-9H-pyrimido[4,5-b]indol-6-yl)carbamate] was run?
**A.** < 0.1 µM

**Q.** How did the IC50 turn out when `Nc1ncnc2c1c1cc(-c3ccncc3)ccc1n2CC(=O)N1[C@@H]2C[C@@H]2C[C@H]1C(=O)Nc1cccc(Br)n1` [Compound 226c, (1R,3S,5R)-2-(2-(4-amino-6-(pyridin-4-yl)-9H-pyrimido[4,5-b]indol-9-yl)acetyl)-N-(6-bromopyridin-2-yl)-2-azabicyclo[3.1.0]hexane-3-carboxamide] was run?
**A.** < 0.1 µM

**Q.** For `Nc1ncnc2c1c1ccc(-c3ccccc3)cc1n2CC(=O)N1[C@@H]2C[C@@H]2C[C@H]1C(=O)Nc1cccc(Br)n1` [Compound 227c, (1R,3S,5R)-2-(2-(4-amino-7-phenyl-9H-pyrimido[4,5-b]indol-9-yl)acetyl)-N-(6-bromopyridin-2-yl)-2-azabicyclo[3.1.0]hexane-3-carboxamide], which IC50 is on record?
**A.** < 0.1 µM

**Q.** With `C[C@@]12C[C@@H](C(=O)Nc3cccc(Br)n3)N(C(=O)Cn3c4cc(-c5ccccc5)ccc4c4c(N)ncnc43)[C@@H]1C2` [Compound 228a, (1R,3S,5R)-2-(2-(4-amino-7-phenyl-9H-pyrimido[4,5-b]indol-9-yl)acetyl)-N-(6-bromopyridin-2-yl)-5-methyl-2-azabicyclo[3.1.0]hexane-3-carboxamide] as the compound, how does the IC50 read?
**A.** < 0.1 µM

**Q.** For `Cc1cc(-c2ccccc2)cc2c3c(N)ncnc3n(CC(=O)N3[C@@H]4C[C@@H]4C[C@H]3C(=O)Nc3cccc(Br)n3)c12` [Compound 229c, (1R,3S,5R)-2-(2-(4-amino-8-methyl-6-phenyl-9H-pyrimido[4,5-b]indol-9-yl)acetyl)-N-(6-bromopyridin-2-yl)-2-azabicyclo[3.1.0]hexane-3-carboxamide], which IC50 is on record?
**A.** < 0.1 µM

**Q.** Which IC50 does the source give for `Cc1cc(-c2ccccc2)cc2c3c(N)ncnc3n(CC(=O)N3[C@H](C(=O)Nc4cccc(Br)n4)C[C@@]4(C)C[C@@H]34)c12` [Compound 230a, (1R,3S,5R)-2-(2-(4-amino-8-methyl-6-phenyl-9H-pyrimido[4,5-b]indol-9-yl)acetyl)-N-(6-bromopyridin-2-yl)-5-methyl-2-azabicyclo[3.1.0]hexane-3-carboxamide] here?
**A.** < 0.1 µM
